Results reported in article PMC5626781, “A Potent Tartrate Resistant Acid Phosphatase Inhibitor to Study the Function of TRAP in Alveolar Macrophages” (Scientific Reports, 2017).

System: RAW264.7 macrophages
Test: Live cell imaging of macrophage migration on osteopontin-coated wells
Assay type: cell-based, mouse
Conditions: AubipyOMe 80 nM
Method: Briefly, RAW264.7 macrophages were plated on osteopontin-coated (10 μg/ml, R&D) Lab-tek chamber slides (Nunc, Hatfield, USA). Cells were incubated with or without RANKL (200 ng/ml) for 48 hours to induce TRAP activity or not[75], followed by labeling with carboxyfluorescein diacetate succinimidyl ester (CFSE, Invitrogen, Life Technologies Europe BV, Bleiswijk, The Netherlands) to visualize cells for live cell imaging using a confocal microscope (Solamere Nipkow Confocal Live Cell Imaging system, Solamere Technology Group, Salt lake city, USA). Cell movement was tracked overnight in the presence of 1% zymosan solution (Sigma-Aldrich), to stimulate cell movement, and with or without TRAP inhibitor AubipyOMe (80 nM). Pictures were taken every 10 min and were transformed into movies with Image J and Imaris x64 (Bitplane, Zurich, Switzerland) software.
IC50 of four independent experiments was calculated.
Transwell experiment to assess macrophage migration
Migration of RAW264.7 macrophages was assessed using a transwell-culturing system with inserts (Sigma-Aldrich) coated with osteopontin (10 µg/ml, R&D). Bovine collagen-coated inserts (Advanced Biometrix, Carlsbad, USA) were used as a matrix control. […] The number of cells migrated to the lower well, including dead cells, was calculated relative to control cells and individual experiments were done at least six times. […]

SMILES: COc1ccnc(-c2cc(OC)ccn2)c1.F[P-](F)(F)(F)(F)F.[Cl][Au+][Cl] [AubipyOMe, [Au(4,4′-dimethoxy-2,2′-bipyridine)Cl2][PF6]]
- migratory behavior of RANKL-pretreated macrophages, live cell tracking (RANKL 200 ng/ml 48 h): inhibited this migratory behavior
- migratory behavior of control cells, live cell tracking (no RANKL): did not affect the migratory behavior
